Measurements reported in ChEMBL document CHEMBL1201862, “PubChem BioAssay data set” (2004).
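Values below derive from 48-hour exposures of cells grown in 96-well plates, with endpoints linearly interpolated between the two concentrations bracketing the appropriate inhibition level. GI50 = concentration required for 50% inhibition of growth.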 The source made the active and inactive calls. Rule as the data show it: active = GI50 up to about 1.1 µM and inactive = higher.

Experiments:
Assay in all cases: DTP human tumour cell line panel, 48 h
[1] = system: DU-145
[2] = system: BT-549
[3] = system: MCF7
[4] = system: SNB-78
[5] = system: HOP-18
[6] = system: M19-MEL
[7] = system: DLD-1
[8] = system: DMS-114
[9] = system: RXF 631

With `CC(C)(C)c1nc2c(o1)/C(=N\c1ccc(F)cc1)c1ccccc1C2=O` the GI50 [1] was 10.4 µM (inactive), the GI50 [2] was 3.45 µM (inactive) and the GI50 [3] was 4.13 µM (inactive). The GI50 [4] was 56 µM (inactive), the GI50 [5] was 15.2 µM (inactive) and the GI50 [6] was 1.13 µM (inactive). For the same compound, the GI50 [7] was 4.11 µM (inactive) and the GI50 [8] was 0.902 µM (active).

`CCOC(=O)[N-]c1ccc(S(=O)(=O)[O+](C)CCl)cc1.CCOC(=O)[N-]c1ccc(S(=O)(=O)[O+](C)CCl)cc1.NC(=O)N=O.NC(=O)OCCCl` was tested, and the GI50 [4] was > 100 µM (inactive), the GI50 [5] was > 100 µM (inactive) and the GI50 [9] was > 100 µM (inactive). For the same compound, the GI50 [6] was > 100 µM (inactive) and the GI50 [8] was > 100 µM (inactive).

For `CC1=C(C(=O)NCc2ccccc2)C(c2ccc(N(C)C)cc2)C(C(=O)NCc2ccccc2)=C(C)N1`, the GI50 [4] was > 100 µM (inactive), the GI50 [9] was > 100 µM (inactive) and the GI50 [6] was > 100 µM (inactive). For the same compound, the GI50 [7] was > 100 µM (inactive) and the GI50 [8] was > 100 µM (inactive).

With `O=c1c2cc([N+](=O)[O-])ccc2sc2ccsc12` the GI50 [4] was > 100 µM (inactive), the GI50 [5] was > 100 µM (inactive) and the GI50 [9] was > 100 µM (inactive). For the same compound, the GI50 [6] was > 100 µM (inactive), the GI50 [7] was > 100 µM (inactive) and the GI50 [8] was > 100 µM (inactive).

In the case of `CC(=O)c1ccc(OCC(O)CO)cc1` (stereo unspecified), the GI50 [4] was > 100 µM (inactive), the GI50 [5] was > 100 µM (inactive) and the GI50 [9] was > 100 µM (inactive). For the same compound, the GI50 [6] was > 100 µM (inactive), the GI50 [7] was 45.8 µM (inactive) and the GI50 [8] was 47 µM (inactive).

`Nc1ncnc2c1ncn2C1C=C(CO)C(O)C1O` (stereo unspecified) was tested, and the GI50 [1] was 5.69 µM (inactive), the GI50 [2] was 1.99 µM (inactive) and the GI50 [3] was 0.197 µM (active). For the same compound, the GI50 [4] was 30.9 µM (inactive), the GI50 [5] was 24.3 µM (inactive) and the GI50 [9] was 12.6 µM (inactive). For the same compound, the GI50 [6] was 40.9 µM (inactive), the GI50 [7] was 5.6 µM (inactive) and the GI50 [8] was 1.99 µM (inactive).

In the case of `Nc1ccc(N)c2c1C(=O)c1ccccc1C2=O`, the GI50 [4] was > 100 µM (inactive), the GI50 [5] was 22 µM (inactive) and the GI50 [9] was 20.4 µM (inactive). For the same compound, the GI50 [6] was 95.5 µM (inactive), the GI50 [7] was 5.83 µM (inactive) and the GI50 [8] was 32.7 µM (inactive).

In the case of `Cc1cccc(C)c1NC(=O)CCc1nnc(S)[nH]1`, the GI50 [4] was > 100 µM (inactive), the GI50 [9] was > 100 µM (inactive) and the GI50 [6] was > 100 µM (inactive). For the same compound, the GI50 [7] was > 100 µM (inactive) and the GI50 [8] was > 100 µM (inactive).

For `COC1=C2CC(C)CC(OC)C(O)C(C)/C=C(\C)C(OC(N)=O)C(OC)/C=C\C=C(/C)C(=O)NC(=C(/C=N/N3CCCCC3)C1=O)C2=O` (stereo unspecified), the GI50 [1] was 18.3 µM (inactive), the GI50 [4] was 12.4 µM (inactive) and the GI50 [5] was 11.9 µM (inactive). The GI50 [9] was 8.28 µM (inactive), the GI50 [6] was 7 µM (inactive) and the GI50 [7] was 8.47 µM (inactive).

`Cc1cc(O)c(C(=O)CC2(O)C(=O)Nc3c(Cl)cc(Cl)cc32)c(=O)o1` (stereo unspecified) was tested, and the GI50 [4] was > 100 µM (inactive), the GI50 [5] was > 100 µM (inactive) and the GI50 [9] was > 100 µM (inactive). For the same compound, the GI50 [6] was 46.8 µM (inactive) and the GI50 [7] was > 100 µM (inactive).

In the case of `Nc1ccc(-c2nc3ccccc3s2)cc1`, the GI50 [1] was 16.4 µM (inactive), the GI50 [2] was 14.9 µM (inactive) and the GI50 [3] was 19.1 µM (inactive). The GI50 [4] was 21.6 µM (inactive), the GI50 [5] was 86.9 µM (inactive) and the GI50 [9] was 19.7 µM (inactive). For the same compound, the GI50 [6] was 30.8 µM (inactive), the GI50 [7] was 26.4 µM (inactive) and the GI50 [8] was 17.7 µM (inactive).

In the case of `O=C(c1ccco1)c1ccccc1C(=O)c1ccco1`, the GI50 [4] was > 100 µM (inactive), the GI50 [5] was 61.5 µM (inactive) and the GI50 [9] was > 100 µM (inactive). For the same compound, the GI50 [6] was > 100 µM (inactive), the GI50 [7] was > 100 µM (inactive) and the GI50 [8] was > 100 µM (inactive).

In the case of `CCCCCCCCOCC(O)COC(=O)CCCCCCC` (stereo unspecified), the GI50 [5] was > 100 µM (inactive), the GI50 [9] was > 100 µM (inactive) and the GI50 [6] was 70.8 µM (inactive). The GI50 [7] was > 100 µM (inactive) and the GI50 [8] was > 100 µM (inactive).
